For one series, the system named is rhinovirus type 8 (RV-8). The series can be described thus: Tissue culture testing, rhinovirus type 8 in HeLa cells. The format is cell-based. To be noted: Enterovirus, 48 and 72 hours, NA = not active at the standard test conditions, read-out: RV-8: lowest concentration of the compound necessary to cause a 50 percent reduction in cytopathic effect. Here is the method:
(§1) Monolayered HeLa cells in 16 millimeter (mm) tissue culture dishes were treated with 1 ml of culture medium (Eagles medium supplemented with fetal calf serum) containing subject compound at an appropriate concentration or containing no compound at all. Culture media such as those described herein are more fully described in standard texts, as for example, Kuchler's Biochemical Methods in Cell Culture and Virology, Dowden, Hutchinson and Ross, Inc., Stroudsberg, PA (1977). Following treatment, cells were challenged with 0.05 ml of rhinovirus type 1A (RV-1A), rhinovirus type 2 (RV-2) or Coxsackie A21 virus (Cox A21) in culture medium. Some of the compounds were also tested against rhinovirus type 5 (RV-5), rhinovirus type 8 (RV-8) or rhinovirus type 64 (RV-64). Cell controls received no viruses.
(§2) ^2 Lowest concentration of the compound (μg/ml) necessary to cause
On the technique in general: Protection from cytopathic effect is a common read-out in antiviral testing.

The test system of series [1] is Coxsackie A21 virus (Cox A21). The series can be described thus: Tissue culture testing, Coxsackie A21 virus in HeLa cells. It is filed as cell-based. To be noted: 48 and 72 hours, NA = not active at the standard test conditions, read-out: Cox A21: lowest concentration of the compound necessary to cause a 50 percent reduction in cytopathic effect. Here is the method: as §1, §2

Series [2] has as its system rhinovirus type 1A (RV-1A). Kind of series: Tissue culture testing, rhinovirus type 1A in HeLa cells. The format is cell-based. To be noted: Enterovirus, 48 and 72 hours, NA = not active at the standard test conditions, read-out: RV-1A: lowest concentration of the compound necessary to cause a 50 percent reduction in cytopathic effect. Here is the method: as §1, §2
Another series concerns rhinovirus type 2 (RV-2). Kind of series: Tissue culture testing, rhinovirus type 2 in HeLa cells. It is filed as cell-based. The following applies: Enterovirus, 48 and 72 hours, NA = not active at the standard test conditions, read-out: RV-2: lowest concentration of the compound necessary to cause a 50 percent reduction in cytopathic effect. Here is the method: as §1, §2
For a further series, the system named is Cox A21. The series can be described thus: Single Oral Dose test in mice challenged IP with Cox A21. The following applies: 600 mg/kg P.O. 3 h after IP challenge; >3.84 significant (95% confidence level). It is filed as in vivo, Swiss male mice. Here is the method:
In addition, some of the compounds were tested in animals utilizing the following procedure, hereinafter referred to as the "Single Oral Dose" test. Swiss male mice, 8-12 grams in weight were challenged intraperitoneally (IP) with 0.2 ml of a normally lethal dose, i.e., a virus dose sufficient to cause […].80-100% mortality in infected animals within 10 days of challenge of Cox A21, in phosphate buffered saline containing 1% heat inactivated fetal calf serum. Three hours later mice were treated orally (P.O.) with 0.2 ml of compound suspended in 0.5% hydroxypropyl methylcellulose (Methocel) or with 0.2 ml of 0.5% Methocel containing no compound. […] Mice were observed daily for 7-10 days post-challenge and deaths recorded. A modified Mantel-Haenzel combined chi-square procedure was used to determine significant difference between virus control and treated groups. Chi-square values greater than 3.84 are considered significant (95% confidence level) in this test.

The next series relates to Coxsackie A21 virus. The series can be described thus: Continuous Oral Feeding test in mice challenged IP with Coxsackie A21 virus. The following applies: po, 0.06 % in diet, 240 h. It is filed as in vivo. Here is the method:
Some of the compounds were also tested in animals utilizing the following procedure, hereainafter referred to as the "Continuous Oral Feeding" test. Coxsackie A21 virus grown on HeLa cells was administered at a concentration that produces 80 to 100% deaths in mice weighing 8 to 12 grams within 10 days, when the mice are injected (IP) with 0.2 ml of virus preparation. Mice were placed on diets containing test compound dispersed in plain commercially available rodent mash chow at a concentration of 0.06% (weight percent) on day 0. On day 1 the mice were challenged with the virus preparation, 0.2 ml/mouse, (IP). Deaths in both control and experimental groups were recorded for the 10 days and the results analyzed by a chi-square (.chi.^2) test. Chi-square values greater than 3.84 indicate the compound is active (95% confidence level).

Series [3] in a line: Cytotoxicity in tissue culture testing (HeLa monolayers). The following applies: human; HeLa cells; observed at 48 and 72 hours post-treatment; read-out: Cytotoxicity: concentration of the compound found to be toxic to the cell. The format is cell-based. As for the experimental part: as §1
^1 Cytotoxicity figures represent the concentration of the compound, […]

Series [4] deals with rhinovirus type 64 (RV-64). Kind of series: Tissue culture testing, rhinovirus type 64 in HeLa cells. To be noted: Enterovirus, 48 and 72 hours, NA = not active at the standard test conditions, read-out: RV-64: lowest concentration of the compound necessary to cause a 50 percent reduction in cytopathic effect. The format is cell-based. Here is the method: as §1, §2
A further series has as its system rhinovirus type 5 (RV-5). The series can be described thus: Tissue culture testing, rhinovirus type 5 in HeLa cells. The format is cell-based. To be noted: Enterovirus, 48 and 72 hours, NA = not active at the standard test conditions, read-out: RV-5: lowest concentration of the compound necessary to cause a 50 percent reduction in cytopathic effect. As for the experimental part:
as §1, §2

In series [5] the test system is 20 different rhinoviruses. The series can be described thus: Summary of WI-38 tissue culture testing against 20 rhinoviruses. The format is cell-based. The following applies: of 20 rhinoviruses. As for the experimental part: The test compound was dissolved in an appropriate solvent (generally dimethyl sulfoxide) and incubated at 56° C. for at least 15 minutes and this solution was then used to prepare various test solutions having the desired concentration of test compound in preheated WI maintenance medium (49% Eagles, 49% medium 199, 2% fetal calf serum and antibiotics).
Triplicate cell culture tubes (WI-38 human embryonic lung cell culture tubes) were fed with 1 ml of medium containing the compound at specified concentrations and inoculated with 3-300 TCID50 (3-300 times the tissue culture infective dose 50, i.e., the dose required to infect 50% of the cell cultures tested). Simultaneous viral titrations were performed. The tissue cultures were supplemented with fresh medium when necessary (around 3-4 days) until viral titrations were completed.
The cell culture tubes were examined dialy for cytopathic effect. […] Comparisons were made at that time with the percentage of cell sheet destruction in tubes containing virus compound mixtures. Observed differences of 75% or more were graded "+", 74-50% as "±", and less than 50% as "-" inhibition.

Values after ≈ are worked out from the molar mass of the structure shown.

For the compound `CCS(=O)(=O)c1ccc(Oc2ccc(Oc3ccccc3)cc2)nc1` [Example 44, 5-(ethylsulfonyl)-2-(4-phenoxyphenoxy)pyridine], the EC50 was 6.25 µg/mL (≈ 17.6 µM) with rhinovirus type 8 (RV-8), 3.12 µg/mL (≈ 8.79 µM) in [1], 6.25 µg/mL (≈ 17.6 µM) in series [2] and 3.12 µg/mL (≈ 8.79 µM) in the series with rhinovirus type 2 (RV-2). Also, the “Single Oral Dose X^2 (chi-square, deaths vs virus control)” value in the series on Cox A21 was 0.196. Further, the “Continuous Oral Feeding X^2 (chi-square, deaths vs control)” value with Coxsackie A21 virus was determined as 1.58. In addition, in [3], the MCC worked out at 6.25 µg/mL.

Take `CS(=O)(=O)c1ccc(Oc2ccc(C#N)cc2)nc1` [Example 30, 4-((5-(methylsulfonyl)-2-pyridinyl)oxy)benzonitrile]: the EC50 in the series on rhinovirus type 8 (RV-8) was 25 µg/mL (≈ 91.1 µM); in series [1], 6.25 µg/mL (≈ 22.8 µM); in series [2], 50 µg/mL (≈ 182 µM); in series [4], 25 µg/mL (≈ 91.1 µM); in the series on rhinovirus type 2 (RV-2), 50 µg/mL (≈ 182 µM); with rhinovirus type 5 (RV-5) it was 50 µg/mL (≈ 182 µM). The “Single Oral Dose X^2 (chi-square, deaths vs virus control)” value in the series with Cox A21 amounted to 30.960. For the same compound, in the series with Coxsackie A21 virus, the “Continuous Oral Feeding X^2 (chi-square, deaths vs control)” value is given as 24.144. The MCC in series [3] is over 100 µg/mL.

`CS(=O)(=O)c1ccc(Oc2ccc(Cl)cc2)nc1` [2-(4-chlorophenoxy)-5-(methylsulfonyl)pyridine]: in series [5] (12.5 μg/ml), the “number of test rhinoviruses against which the compound was graded "+"” value worked out at 13 test rhinoviruses and the “number of test rhinoviruses against which the compound was graded "±"” value was 3.

Turning to `CCS(=O)(=O)c1ccc(Oc2ccc(Cl)c(Cl)c2)nc1` [2-(3,4-dichlorophenoxy)-5-(ethylsulfonyl)pyridine], in [5] (25 μg/ml), the “number of test rhinoviruses against which the compound was graded "+"” value is on record as 14 test rhinoviruses and the “number of test rhinoviruses against which the compound was graded "±"” value is given as 3.

These data come from US4371537A, “Sulfur-substituted phenoxypyridines having antiviral activity” (The Dow Chemical Company, priority 1981, dated 1983).
